Test results from ChEMBL document CHEMBL3351436, “Structure-activity studies of (-)-epigallocatechin gallate derivatives as HCV entry inhibitors” (Bioorg Med Chem Lett, 2014).
Activity calls are given as the source filed them. No cut-off for these calls is given here.

Columns and labels:
[1] = test system: Hepatitis C virus; test: Antiviral activity against HCV genotype 1a assessed as inhibition of viral entry into Huh7 cells treated at 50 uM for 2 hr followed by 28 hrs incubation period in compound-free medium by immunofluorescence assay; type: functional, cell-based; settings: Hepacivirus hominis, subtype 1a, Huh-7
[2] = Cytotoxicity against human HuH7 cells assessed as reduction cell viability up to 1 mM after 48 to 72 hrs by MTS assay; type: cell-based; settings: huh-7
[3] = test system: Hepatitis C virus; test: Antiviral activity against HCV genotype 1a assessed as inhibition of viral entry into Huh7 cells treated for 2 hr followed by 28 hrs incubation period in compound-free medium by immunofluorescence assay; type: functional, cell-based, Hepacivirus hominis; settings: subtype 1a, Huh-7

Row | Compound | inhibition [1] | Activity [2] | IC50 [3] [µM]
1 | O=C(O[C@@H]1Cc2ccccc2O[C@@H]1c1ccccc1)c1cc(O)c(O)c(O)c1 (racemic) | inactive |  | 
2 | O=C(O[C@@H]1Cc2c(O)cc(O)cc2O[C@@H]1c1cc(O)c(O)c(O)c1)c1ccncc1 | inactive |  | 
3 | O=C(O[C@@H]1Cc2c(O)cc(O)cc2O[C@@H]1c1cc(O)c(O)c(O)c1)c1ccccc1 | Active | Non-toxic | 27
4 | CC1Oc2ccc(C#N)cc2C=C1C(=O)NC1CCNCC1 (centres undefined) | inactive |  | 
5 | O=C(O[C@H]1Cc2c(O)cc(O)cc2O[C@@H]1c1ccccc1)c1cc(O)c(O)c(O)c1 (racemic) | inactive |  | 
6 | O=C(O[C@@H]1Cc2c(O)cc(O)cc2O[C@@H]1c1cc(O)c(O)c(O)c1)c1ccc(F)c(F)c1 | Active | Non-toxic | 6.9
7 | O=C(O[C@@H]1Cc2c(O)cc(O)cc2O[C@@H]1c1cc(O)c(O)c(O)c1)c1cc(O)c(O)c(O)c1 [EPIGALOCATECHIN GALLATE] | Active |  | 20
8 | O=C(O[C@@H]1Cc2c(O)cc(O)cc2O[C@H]1c1cc(O)c(O)c(O)c1)c1cc(O)c(O)c(O)c1 | Active |  | 
9 | CC1Oc2ccc(C#N)cc2C=C1C(=O)N[C@H]1CC[C@@H](N)CC1 (some centres undefined) | inactive |  | 
